Assay results taken from patent US9617331B2, “Methods of regulating angiogenesis by administering agents which increase apoB-100 polypeptide” (Yeda Research and Development Co. Ltd., priority 2011, dated 2017).

Key:
[1] = tested on: subintestinal vessels (SIVs) of wild type zebrafish; test: Ectopic subintestinal vessel (SIV) sprouting in wild type zebrafish (AP staining / confocal imaging); type: in vivo; settings: for ectopic SIV branching: 3.5 dpf wild type larva treated with 10 μM at 2.5 dpf, vs DMSO
Protocol: (§1) FIG. 6 illustrates quantitation of SW vascular plexus width and ectopic ventral SW sprout number and length. The maximal width of the normal SIV plexus is measured from supraintestinal artery to subintestinal vein (1). The number of ectopic sprouts greater than 1 μm in length projecting ventrally from the subintestinal vein is counted, and the total length of all of these sprouts (2) is measured. […] Scale bar 30 μm.
Zebrafish Husbandry and Injection: Zebrafish were raised by standard methods. The Tg(fli1:EGFP)^y1, Tg(fli1:nEGFP)^y7 [Yaniv et al., Nat Med 12, 711-716 (2006)] and Tg(flt1:YFP)^hu4624 [Hogan et al., Nat Genet 41, 396-398 (2009)] lines were previously derived. MOs and DNA were injected as further described below.
(§2) Microangiography and Cell Transplants: 10 μM Atorvastatin (Sigma), 1 ug/μl DiI-LDL (Invitrogen), 6 μg/ml C6 in 0.5% BSA Fatty Acid Free (Sigma A8806) and Human Apolipoprotein B-100 (A50220H Meridian Life Science) in 0.5% BSA Fatty Acid Free (Sigma A8806) microangiography was performed at 2.5 dpf as described [Isogai et al., Dev Biol 230, 278-301 (2001)]. HEK293 cells co-transfected with Huh7MTP+apoB34 (see herein below) or un-transfected control cells were transplanted into the perivitelline space of one side of the yolk of 2.5 dpf stl; Tg(fli1:EGFP)^y1 mutant or WT embryos, ventral to the developing SIVs [Nicoll et al., J Cell Mol Med (2008)].
(§3) In Situ Hybridization, Oil Red 0, and Alkaline Phosphatase (AP) Staining: Embryos were fixed overnight in 4% PFA and processed for AP staining [Habeck et al., Curr Biol 12, 1405-1412 (2002)], Oil Red 0 staining [Schlegel et al., Biochemistry 45, 15179-15187 (2006)], or whole-mount in situ hybridization using antisense mRNA probes for vegfr1, vegfr2, vegfr3 and VeCad as described [Pham et al., Dev Biol 303, 772-783 (2007)].
Microscopy and Imaging: Zebrafish embryos used for imaging or in situ hybridization were treated with 0.00 3% phenylthiourea from 8hpf to inhibit melanin pigment formation. […]

trunk ISVs = test: Trunk intersegmental vessel (ISV) phenotype of morpholino-injected zebrafish; type: in vivo; settings: 3.5 dpf MO-injected zebrafish
Protocol: Microscopy and Imaging: Zebrafish embryos used for imaging or in situ hybridization were treated with 0.00 3% phenylthiourea from 8hpf to inhibit melanin pigment formation. Confocal imaging was performed using a FVIOOO Olympus imaging system or Zeiss LSM780 upright confocal microscope equipped with ×20 NA 1.0 lens.
Injection of Zebrafish Embryos: The mtp [Schlegel, A. & Stainier, D. Y. Biochemistry 45, 15179-15187 (2006)], apoCII [Pickart, M. A., et al. PLoS One 1, e104 (2006);
MOs (Gene-Tools) were resuspended and injected at concentrations from 5-20 ng/embryo.

WT zebrafish embryos = test: Survival of WT zebrafish embryos treated with oleic acid; type: in vivo; settings: increasing concentrations
Protocol: FIG. 11 is a survival curve of WT zebrafish embryos treated with increasing concentrations of oleic acid. Only embryos treated with less than 6 μg/ml oleic acid survived until 6 dpf.

stl mutants = test: Rescue of ectopic SIV sprouts in stl mutant zebrafish; type: in vivo; settings: for excess angiogenesis / ectopic branching phenotype of stl mutants: intravascular supply at 2.5 dpf
Protocol: as §1
Cloning of mtp and Rescue of the Mutant Phenotype: The full-length coding sequence of zebrafish mtp was amplified by PCR from WT cDNA and cloned into a pCSDest vector [Villefranc et al., Dev Dyn 236, 3077-3087 (2007)] as further described herein below. mtp mRNA was synthesized with mMessage mMachine kit (Ambion) and injected at a concentration of 232 pg per embryo into the 1 cell stage cytoplasm or into the YSL at dome stage (approximately at 4 hpf).
as §2, §3
pCS2vegfrlCDS mRNA ([…]) and pCS2mtpCDSmRNA ([…]) were injected at the 1 cell stage or at dome stage, respectively.
(§4) Fatty Acids Feeding of Zebrafish Embryos: Dechorionized 24 hours post fertilization (hpf) embryos were incubated with 6 μg/ml short, intermediate or long chain fatty acid in a solution containing 0.1% BSA Fatty Acid Free (Sigma A8806) for 48 hours. Embryos were then fixed overnight in 4% PFA and processed for AP staining.

apoCII morphants = test: Fatty acid feeding of apoCII morphants, trunk ISV phenotype; type: in vivo, zebrafish; settings: medium supplemented with 6 μg/ml (C6)
Protocol: as §4

[2] = stl mutants injected intravascularly at 2.5 dpf, vs not injected

Compound: vegfr1 MO: vegfr1 ATG blocking morpholino, SEQ ID NO: 1, 5′-ATATCGAACATTCTCTTGGTCTTGC-3′ (all phosphorodiamidate morpholino (PMO))
- ectopic SIV sprouts after morpholino injection ([1]; 3.5 dpf Tg(fli-EGFP)y1 zebrafish, MO-injected): ectopic SIV sprouts
- trunk ISV phenotype (trunk ISVs): ectopic branching and sprouting

Compound: CCCCCCCC/C=C\CCCCCCCC(=O)O [oleic acid]
- oleic acid concentration at which embryos survived until 6 dpf (WT zebrafish embryos): less than 6 μg/ml

Compound: CCCCCC(=O)O [scFA]
- ectopic vessels phenotype of stl mutants (stl mutants; 3.5 dpf stl mutants, 6 μg/ml fatty acid in embryo medium): did not inhibit the ectopic vessels phenotype
- excess angiogenesis / ectopic branching phenotype of stl mutants (stl mutants): did not rescue the ectopic branching phenotype
- trunk ISV phenotype of apoCII morphants (apoCII morphants): No phenotypic changes were detected

Compound: CC(C)c1c(C(=O)Nc2ccccc2)c(-c2ccccc2)c(-c2ccc(F)cc2)n1CC[C@@H](O)C[C@@H](O)CC(=O)O [atorvastatin, Atorvastatin]
- ectopic SIV branching [1]: efficiently phenocopied the excess angiogenesis phenotype of stl mutants
- ectopic SIV branching ([1]; listed as Atorvastatin): results in ectopic SW branching

Compound: delipidated form of apoB-100: Human Apolipoprotein B-100 (A50220H Meridian Life Science)
- excess angiogenesis / ectopic branching phenotype of stl mutants (stl mutants): efficiently reverted the excess angiogenesis phenotype
- average number of ectopic SIV segments (stl mutants; [2]): significantly reduced
- average total length of ectopic SIV segments (stl mutants; [2]): significantly reduced
